Results published in patent publication US5532382A, “Benzothiophenes substituted at the 3-carbonyl” (Eli Lilly and Company, priority 1995, dated 1996).

system: production of thromboxane B2 (T×B2) in plasma-depleted blood; test: Inhibition of Eicosanoid Production by Plasma-depleted Blood: TxB2; assay type: cell-based; settings: Homo sapiens, read-out: Plasma DPLTD Blood TxB2 IC50
Experimental: Inhibition of Eicosanoid Production by Plasma-depleted Blood.
Compounds are evaluated for their ability to inhibit production of leukotriene B4 (LTB4) and thromboxane B2 (T×B2) upon stimulation of human plasma-depleted blood with formyl-methionyl-leucyl-phenylalanine (FMLP) and thrombin. LTB4 is produced by neutrophils and T×B2 by platelets stimulated at their respective receptors with FMLP and thrombin. The assay is carried out in 1 ml deep well polypropylene 96-well plates (Beckman). For the test, ten ml of blood is collected in EDTA at a final concentration of 1.5 mg/ml. Then, 40 ml glucose phosphate buffer containing 0.1% gelatin is added and the suspension centrifuged at 900 g for 10 minutes at room temperature. The supernatant is discarded and the cells washed once with 50 ml buffer before resuspending them in 50 ml Krebs-Ringers-Henseleit Buffer containing 0.1% gelatin, 1 mM […], 1.1 mM MgCl2 (KRH buffer). Working solutions of test compounds are made by dissolving the material in DMSO at 10 mM and diluting with appropriate amounts of KRH buffer. An agonist solution is made containing 1 μM FMLP (sigma) and 10 units/ml of thrombin in KRH buffer (Enzyme Research Labs). […] The amount of LTB4 and T×B2 produced is determined by the use of a competetive enzyme immunoassay using commercial reagents from Cayman Chemical.

Work on `O=C(c1ccc(O)cc1)c1c(-c2ccc(O)cc2)sc2cc(O)ccc12` [Compound D] yielded an IC50 greater than 9.8 µM.

system: MCII cells; test: MCII MAST CELL TOXICITY ASSAY (XTT); assay type: cell-based, mouse; settings: XTT formazan, 37° C. 4-12 hours; read-out: MCII Mast Cell Toxicity IC50
Description: MCII MAST CELL TOXICITY ASSAY
This toxicity assay is run in parallel with the MCII mast cell LTC4 assay and serves as an indicator of compound effects on the viability and metabolic activity of the MCII cells. This "toxicity" assay is based on the ability of dehydrogenase enzymes present in viable metabolically active cells to bioreduce the tetrazolium salt XTT yielding a colored, water soluble formazan product. (see, Roehm et al.) An improved colorimetric assay for cell proliferation and viability utilizing the tetrazolium salt XTT. J. Immunol. Methods 142:257-65 (1991).
A duplicate polystyrene 96-well tissue culture plate (Costar) is set up with sensitized MCII cells, EM95 ascites, media and dilutions of the test compound as described above. The complete media is supplemented with concanavalin A induced culture supernatants from the mouse helper T cell clone D10.G4, as a source of mast cell growth factors.
Wells of the toxicity assay Elate are pulsed with 25 μl XTT (Sigma) plus phenazine methosulfate (Aldrich) giving a final concentration of 0.2 mg/ml XTT and 25 μM phenazine methosulfate. The plates are incubated at 37° C. in 10% CO2 for 4-12 hours and then production of the XTT formazan product determined by measuring the optical density of the wells at a wavelength of 450 nm. The positive control on each plate is stimulated MCII cells with dimethyl sulfoxide vehicle alone and the negative control is the same reaction mixture without cells. The background negative control value is subtracted from experimental and positive control values and the data are reported as percent of positive control.

Point of comparison: `O=C(c1ccccc1)c1c(-c2ccc(O)cc2)sc2cc(O)ccc12` [Compound A], CC50 0.3 µM. Against it:
- Oc1ccc(-c2cc3ccc(O)cc3s2)cc1 [Compound B] — not separable, < 10 µM
- O=C(c1ccc(-c2ccccc2)cc1)c1c(-c2ccc(O)cc2)sc2cc(O)ccc12 [Example 1, 6-hydroxyphenyl-2-(p-hydroxyphenyl)-(benzo(B)thien-3-yl)(p-phenyl)phenyl methanone] — higher, > 10 µM
- O=C(c1cccc2ccccc12)c1c(-c2ccc(O)cc2)sc2cc(O)ccc12 [Example 2, 6-hydroxyphenyl-2-(p-hydroxyphenyl)-(benzo(B)thien-3-yl) (α-naphyl)methanone] — higher, > 10 µM
- O=C(c1ccc2ccccc2c1)c1c(-c2ccc(O)cc2)sc2cc(O)ccc12 [Example 3, 6-hydroxyphenl-2-(p-hydroxyphenyl)-(benzo(B)thien-3-yl) (β-napthyl)methanone] — higher, > 10 µM
